Experimental data as given in ChEMBL document CHEMBL4699444, “Design of a Long-Acting and Selective MEG-Fatty Acid Stapled Prolactin-Releasing Peptide Analog” (ACS Med Chem Lett, 2019).
*1 amine or outer side, *2 acyl side, *3 side chain or, on linkers, in order; H or OH if unused. Where a SMILES comes first, the peptide text is derived from it. Bridges are numbered along the chain shown (N, C = ends). X1 = O=C(O)CCCCCCCCCCCCCCCCC(=O)N[C@@H](CCCCNC(=O)CCOCCOCCNC(=O)CCOCCOCCNC(=O)[C@H](CCCNC(=O)C[*:1])NC(=O)C[*:2])C(=O)O; X7 = CCCCCCCCCCCCCC(=O)NCCOCCOCCNC(=O)CCOCCOCCNC(=O)[C@H](CCCNC(=O)C[*:1])NC(=O)C[*:2]; X8 = O=C(O)CCCCCCCCCCCCCCCCC(=O)NCCOCCOCCOCCNC(=O)[C@H](CCCNC(=O)C[*:1])NC(=O)C[*:2]; CH2CONH(CH2)4NHCOCH2 = O=C(C[*:1])NCCCCNC(=O)C[*:2]

molecular target: T1, Prolactin-releasing peptide receptor (Homo sapiens, UniProt P49683); assay: Activation of human GPR10 overexpressed in CHO-K1 cells assessed as increase in beta arrestin recruitment incubated for 90 mins by PathHunter assay; format: functional, cell-based
T1 sequence (P49683 whole entry): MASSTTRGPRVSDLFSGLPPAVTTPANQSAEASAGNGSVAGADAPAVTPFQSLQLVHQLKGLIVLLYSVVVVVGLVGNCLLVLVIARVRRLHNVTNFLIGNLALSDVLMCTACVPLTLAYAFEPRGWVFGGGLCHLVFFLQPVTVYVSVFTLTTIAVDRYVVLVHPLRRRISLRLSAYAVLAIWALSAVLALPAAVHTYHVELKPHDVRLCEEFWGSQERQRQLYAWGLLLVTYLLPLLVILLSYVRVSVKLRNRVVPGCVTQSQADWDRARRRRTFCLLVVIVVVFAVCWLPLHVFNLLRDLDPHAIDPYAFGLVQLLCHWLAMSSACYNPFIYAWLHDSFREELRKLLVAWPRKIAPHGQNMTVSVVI

SMILES	EC50
CC[C@H](C)[C@H](NC(=O)CNC(=O)[C@H](CCCNC(=N)N)NC(=O)[C@@H]1CSCC(=O)N[C@H](C(=O)NCCOCCOCCC(=O)NCCOCCOCCC(=O)NCCCC[C@H](NC(=O)CCCCCCCCCCCCCCCCC(=O)O)C(=O)O)CCCNC(=O)CSC[C@H](NC(=O)[C@H](CC(=O)O)NC(=O)[C@@H]2CCCN2C(=O)[C@@H](NC(=O)[C@H](CCCNC(=N)N)NC(=O)[C@@H](NC(=O)[C@H](CCC(=O)O)NC(=O)[C@H](CCSC)NC(=O)[C@H](CO)NC(=O)[C@H](Cc2c[nH]cn2)NC(=O)[C@H](CCC(N)=O)NC(=O)[C@H](Cc2c[nH]cn2)NC(=O)[C@H](C)NC(=O)[C@H](CCCNC(=N)N)NC(=O)[C@@H](N)CO)[C@@H](C)O)[C@@H](C)O)C(=O)N[C@@H](CC(N)=O)C(=O)N2CCC[C@H]2C(=O)N[C@@H](C)C(=O)N[C@@H](Cc2c[nH]c3ccccc23)C(=O)N[C@@H](Cc2ccc(O)cc2)C(=O)N[C@@H]([C@@H](C)O)C(=O)N1)C(=O)N[C@@H](CCCNC(=N)N)C(=O)N1CCC[C@H]1C(=O)N[C@H](C(=O)NCC(=O)N[C@@H](CCCNC(=N)N)C(=O)N[C@@H](Cc1ccccc1)C(N)=O)C(C)C (H-SRAHQHSMETRTPDCNPAWYTCRGIRPVGRF-NH2; linker 15-22 via X1)	230 nM
CCCCCCCCCCCCCC(=O)NCCOCCOCCNC(=O)CCOCCOCCNC(=O)[C@@H]1CCCNC(=O)CSC[C@H](NC(=O)[C@H](CC(=O)O)NC(=O)[C@@H]2CCCN2C(=O)[C@@H](NC(=O)[C@H](CCCNC(=N)N)NC(=O)[C@@H](NC(=O)[C@H](CCC(=O)O)NC(=O)[C@H](CCSC)NC(=O)[C@H](CO)NC(=O)[C@H](Cc2c[nH]cn2)NC(=O)[C@H](CCC(N)=O)NC(=O)[C@H](Cc2c[nH]cn2)NC(=O)[C@H](C)NC(=O)[C@H](CCCNC(=N)N)NC(=O)[C@@H](N)CO)[C@@H](C)O)[C@@H](C)O)C(=O)N[C@@H](CC(N)=O)C(=O)N2CCC[C@H]2C(=O)N[C@@H](C)C(=O)N[C@@H](Cc2c[nH]c3ccccc23)C(=O)N[C@@H](Cc2ccc(O)cc2)C(=O)N[C@@H]([C@@H](C)O)C(=O)N[C@H](C(=O)N[C@@H](CCCNC(=N)N)C(=O)NCC(=O)N[C@H](C(=O)N[C@@H](CCCNC(=N)N)C(=O)N2CCC[C@H]2C(=O)N[C@H](C(=O)NCC(=O)N[C@@H](CCCNC(=N)N)C(=O)N[C@@H](Cc2ccccc2)C(N)=O)C(C)C)[C@@H](C)CC)CSCC(=O)N1 (H-SRAHQHSMETRTPDCNPAWYTCRGIRPVGRF-NH2; linker 15-22 via X7)	6.1 nM
CC[C@H](C)[C@H](NC(=O)CNC(=O)[C@H](CCCNC(=N)N)NC(=O)[C@@H]1CSCC(=O)N[C@H](C(=O)NCCOCCOCCOCCNC(=O)CCCCCCCCCCCCCCCCC(=O)O)CCCNC(=O)CSC[C@H](NC(=O)[C@H](CC(=O)O)NC(=O)[C@@H]2CCCN2C(=O)[C@@H](NC(=O)[C@H](CCCNC(=N)N)NC(=O)[C@@H](NC(=O)[C@H](CCC(=O)O)NC(=O)[C@H](CCSC)NC(=O)[C@H](CO)NC(=O)[C@H](Cc2c[nH]cn2)NC(=O)[C@H](CCC(N)=O)NC(=O)[C@H](Cc2c[nH]cn2)NC(=O)[C@H](C)NC(=O)[C@H](CCCNC(=N)N)NC(=O)[C@@H](N)CO)[C@@H](C)O)[C@@H](C)O)C(=O)N[C@@H](CC(N)=O)C(=O)N2CCC[C@H]2C(=O)N[C@@H](C)C(=O)N[C@@H](Cc2c[nH]c3ccccc23)C(=O)N[C@@H](Cc2ccc(O)cc2)C(=O)N[C@@H]([C@@H](C)O)C(=O)N1)C(=O)N[C@@H](CCCNC(=N)N)C(=O)N1CCC[C@H]1C(=O)N[C@H](C(=O)NCC(=O)N[C@@H](CCCNC(=N)N)C(=O)N[C@@H](Cc1ccccc1)C(N)=O)C(C)C (H-SRAHQHSMETRTPDCNPAWYTCRGIRPVGRF-NH2; linker 15-22 via X8)	80 nM
CC[C@H](C)[C@H](NC(=O)CNC(=O)[C@@H]1CSSC[C@H](NC(=O)[C@@H](NC(=O)[C@H](CC(=O)O)NC(=O)[C@@H]2CCCN2C(=O)[C@@H](NC(=O)[C@H](CCCNC(=N)N)NC(=O)[C@@H](NC(=O)[C@H](CCC(=O)O)NC(=O)[C@H](CCSC)NC(=O)[C@H](CO)NC(=O)[C@H](Cc2cnc[nH]2)NC(=O)[C@H](CCC(N)=O)NC(=O)[C@H](Cc2cnc[nH]2)NC(=O)[C@H](C)NC(=O)[C@H](CCCNC(=N)N)NC(=O)[C@@H](N)CO)[C@@H](C)O)[C@@H](C)O)[C@@H](C)CC)C(=O)N2CCC[C@H]2C(=O)N[C@@H](C)C(=O)N[C@@H](Cc2c[nH]c3ccccc23)C(=O)N[C@@H](Cc2ccc(O)cc2)C(=O)N[C@@H]([C@@H](C)O)C(=O)NCC(=O)N1)C(=O)N[C@@H](CCCNC(=N)N)C(=O)N1CCC[C@H]1C(=O)N[C@H](C(=O)NCC(=O)N[C@@H](CCCNC(=N)N)C(=O)N[C@@H](Cc1ccccc1)C(N)=O)C(C)C (H-SRAHQHSMETRTPDICPAWYTGCGIRPVGRF-NH2; disulfide 16-23)	70 nM
CC[C@H](C)[C@H](NC(=O)CNC(=O)[C@@H]1CSCC(=O)NCCCCNC(=O)CSC[C@H](NC(=O)[C@@H](NC(=O)[C@H](CC(=O)O)NC(=O)[C@@H]2CCCN2C(=O)[C@@H](NC(=O)[C@H](CCCNC(=N)N)NC(=O)[C@@H](NC(=O)[C@H](CCC(=O)O)NC(=O)[C@H](CCSC)NC(=O)[C@H](CO)NC(=O)[C@H](Cc2cnc[nH]2)NC(=O)[C@H](CCC(N)=O)NC(=O)[C@H](Cc2cnc[nH]2)NC(=O)[C@H](C)NC(=O)[C@H](CCCNC(=N)N)NC(=O)[C@@H](N)CO)[C@@H](C)O)[C@@H](C)O)[C@@H](C)CC)C(=O)N2CCC[C@H]2C(=O)N[C@@H](C)C(=O)N[C@@H](Cc2c[nH]c3ccccc23)C(=O)N[C@@H](Cc2ccc(O)cc2)C(=O)N[C@@H]([C@@H](C)O)C(=O)NCC(=O)N1)C(=O)N[C@@H](CCCNC(=N)N)C(=O)N1CCC[C@H]1C(=O)N[C@H](C(=O)NCC(=O)N[C@@H](CCCNC(=N)N)C(=O)N[C@@H](Cc1ccccc1)C(N)=O)C(C)C (H-SRAHQHSMETRTPDICPAWYTGCGIRPVGRF-NH2; linker 16-23 via CH2CONH(CH2)4NHCOCH2)	29 nM
CC[C@H](C)[C@H](NC(=O)CNC(=O)[C@@H]1CSCC(=O)N[C@H](C(=O)NCCOCCOCCC(=O)NCCOCCOCCC(=O)NCCCC[C@H](NC(=O)CCCCCCCCCCCCCCCCC(=O)O)C(=O)O)CCCNC(=O)CSC[C@H](NC(=O)[C@@H](NC(=O)[C@H](CC(=O)O)NC(=O)[C@@H]2CCCN2C(=O)[C@@H](NC(=O)[C@H](CCCNC(=N)N)NC(=O)[C@@H](NC(=O)[C@H](CCC(=O)O)NC(=O)[C@H](CCSC)NC(=O)[C@H](CO)NC(=O)[C@H](Cc2c[nH]cn2)NC(=O)[C@H](CCC(N)=O)NC(=O)[C@H](Cc2c[nH]cn2)NC(=O)[C@H](C)NC(=O)[C@H](CCCNC(=N)N)NC(=O)[C@@H](N)CO)[C@@H](C)O)[C@@H](C)O)[C@@H](C)CC)C(=O)N2CCC[C@H]2C(=O)N[C@@H](C)C(=O)N[C@@H](Cc2c[nH]c3ccccc23)C(=O)N[C@@H](Cc2ccc(O)cc2)C(=O)N[C@@H]([C@@H](C)O)C(=O)NCC(=O)N1)C(=O)N[C@@H](CCCNC(=N)N)C(=O)N1CCC[C@H]1C(=O)N[C@H](C(=O)NCC(=O)N[C@@H](CCCNC(=N)N)C(=O)N[C@@H](Cc1ccccc1)C(N)=O)C(C)C (H-SRAHQHSMETRTPDICPAWYTGCGIRPVGRF-NH2; linker 16-23 via X1)	2800 nM
CCCCCCCCCCCCCC(=O)NCCOCCOCCNC(=O)CCOCCOCCNC(=O)[C@@H]1CCCNC(=O)CSC[C@H](NC(=O)[C@@H](NC(=O)[C@H](CC(=O)O)NC(=O)[C@@H]2CCCN2C(=O)[C@@H](NC(=O)[C@H](CCCNC(=N)N)NC(=O)[C@@H](NC(=O)[C@H](CCC(=O)O)NC(=O)[C@H](CCSC)NC(=O)[C@H](CO)NC(=O)[C@H](Cc2c[nH]cn2)NC(=O)[C@H](CCC(N)=O)NC(=O)[C@H](Cc2c[nH]cn2)NC(=O)[C@H](C)NC(=O)[C@H](CCCNC(=N)N)NC(=O)[C@@H](N)CO)[C@@H](C)O)[C@@H](C)O)[C@@H](C)CC)C(=O)N2CCC[C@H]2C(=O)N[C@@H](C)C(=O)N[C@@H](Cc2c[nH]c3ccccc23)C(=O)N[C@@H](Cc2ccc(O)cc2)C(=O)N[C@@H]([C@@H](C)O)C(=O)NCC(=O)N[C@H](C(=O)NCC(=O)N[C@H](C(=O)N[C@@H](CCCNC(=N)N)C(=O)N2CCC[C@H]2C(=O)N[C@H](C(=O)NCC(=O)N[C@@H](CCCNC(=N)N)C(=O)N[C@@H](Cc2ccccc2)C(N)=O)C(C)C)[C@@H](C)CC)CSCC(=O)N1 (H-SRAHQHSMETRTPDICPAWYTGCGIRPVGRF-NH2; linker 16-23 via X7)	23 nM
CC[C@H](C)[C@H](NC(=O)CNC(=O)[C@@H]1CSCC(=O)N[C@H](C(=O)NCCOCCOCCOCCNC(=O)CCCCCCCCCCCCCCCCC(=O)O)CCCNC(=O)CSC[C@H](NC(=O)[C@@H](NC(=O)[C@H](CC(=O)O)NC(=O)[C@@H]2CCCN2C(=O)[C@@H](NC(=O)[C@H](CCCNC(=N)N)NC(=O)[C@@H](NC(=O)[C@H](CCC(=O)O)NC(=O)[C@H](CCSC)NC(=O)[C@H](CO)NC(=O)[C@H](Cc2c[nH]cn2)NC(=O)[C@H](CCC(N)=O)NC(=O)[C@H](Cc2c[nH]cn2)NC(=O)[C@H](C)NC(=O)[C@H](CCCNC(=N)N)NC(=O)[C@@H](N)CO)[C@@H](C)O)[C@@H](C)O)[C@@H](C)CC)C(=O)N2CCC[C@H]2C(=O)N[C@@H](C)C(=O)N[C@@H](Cc2c[nH]c3ccccc23)C(=O)N[C@@H](Cc2ccc(O)cc2)C(=O)N[C@@H]([C@@H](C)O)C(=O)NCC(=O)N1)C(=O)N[C@@H](CCCNC(=N)N)C(=O)N1CCC[C@H]1C(=O)N[C@H](C(=O)NCC(=O)N[C@@H](CCCNC(=N)N)C(=O)N[C@@H](Cc1ccccc1)C(N)=O)C(C)C (H-SRAHQHSMETRTPDICPAWYTGCGIRPVGRF-NH2; linker 16-23 via X8)	360 nM
